Results from patent US11883526B2 (priority 2019, dated 2024).

Key:
[1] = single dose study, 72 mg intranasal
Protocol: This study includes a single dose and 14-day repeated dose neurotoxicity studies with intranasally administered esketamine in female rats 12 to 14 weeks of age. These studies were conducted to investigate whether single or repeated intranasal administrations of esketamine induced neurodegenerative changes in the rat brain. The study results were used to estimate an esketamine exposure-based safety margin compared with the maximum dose of esketamine administered intranasally to depressed adult patients in clinical trials.
The vehicle- and the 36 and 54 mg-dosed groups consisted of 24 animals per group, while the 72 mg-dosed and positive control groups involved 30 animals per group. Four satellite animals were added to the esketamine HCl-dosed groups of main study animals for toxicokinetic (TK) purposes. In these animals the plasma exposure to esketamine was measured on the day of dosing at various time points up to and including 24 hours after the first instillation.

[2] = system: patients with treatment-resistant depression (TRD); experiment: MADRS total score, response, remission (phase 2 dose-response study, Example 7); format: in vivo, human; conditions: for MADRS total score, LS mean difference vs placebo (all dose groups): 28, 56, 84 mg; for Remitters, % / Responders, %: study period endpoint
Protocol: Efficacy was assessed with the Montgomery-Asberg Depression Rating Scale (MADRS; Montgomery, “A new depression scale designed to be sensitive to change”, Br. J. Psychiatry, 1979, 134:382-389; Williams, “Development and reliability of a structured interview guide for the Montgomery Asberg Depression Rating Scale (SIGMA)”, Br. J. Psychiatry, 2008, 192(1):52-58) on days 1 (pre-dose and 2 hour post-dose), 2, 8 (pre-dose), 9, and 15, using the structured interview guide (SIGMA). See, Williams 2008.
Efficacy data were analyzed in intent-to-treat (ITT) analysis sets for each period and phase. The ITT analysis sets included all participants who received at least 1 dose of study medication during that period or phase and had baseline and at least one post-baseline MADRS total score within that period or phase.
The primary efficacy endpoint—change from baseline (pre-dose, day 1 in each period) to endpoint (day 8 in each period) in MADRS total score—was analyzed using the analysis of covariance (ANCOVA) model. For Period 1, the model included treatment and country as factors, and baseline MADRS total score as covariate. For Period 2, the model included treatment and country as factors, Period 2 baseline QIDS-SR16 score (moderate or severe), and Period 2 baseline MADRS total score as a continuous covariate.
Given the consistency between Periods 1 and 2 results (Chi 2016), esketamine dose groups were compared to placebo using a combined test on the weighted test statistics for each period in the double-blind treatment phase. A dose-response analysis on primary efficacy endpoint was performed using data combined from both periods. The Multiple Comparison Procedure-Modelling (MCP-Mod) methodology was performed (Williams 2008; Bretz, “Combining multiple comparisons and modeling techniques in dose-response studies”, Biometrics, 2005, 61:738-748).

[3] = system: patients with treatment-resistant depression (TRD); experiment: Vital signs: blood pressure and heart rate (Example 7); format: in vivo, human
Protocol: (§1) Adverse events were monitored throughout the study. Other safety assessments (i.e., laboratory tests, vital signs, physical examination) were performed at pre-specified time points. Vital signs, the Clinician Administered Dissociative States Scale (CADSS; Bremner, “Measurement of dissociative states with the clinician-administered dissociative states scale (CADSS)”, J. Traumatic Stress, 1998, 11(1):125-136), and the 4-item positive symptom subscale from the Brief Psychiatric Rating Scale (BPRS; Overall, “The Brief Psychiatric Rating Scale. Psychological Reports”, 1962, 10:799-812) were assessed pre-dose, at 40 minutes, and 2 hours post-dose.

[4] = system: patients with treatment-resistant depression (TRD); experiment: BPRS positive symptom subscale (Example 7); design: species or system human; conditions: in vivo
Protocol: as §1

[5] = Text: This example provides an LC-MS/MS method for the determination of ketamine and norketamine in sodium heparin human plasma using ketamine-d4 and norketamine-d4 as the respective internal standards (IS).
[6] = Pharmacokinetics of intranasal esketamine in healthy subjects (Example 9); conditions: across the 3 treatment groups
Protocol: This was an open-label, single-center study. The subjects were healthy Caucasian men and women, 20 to 55 years of age, inclusive. […] The solution consisted of:
Blood samples (4 mL each) for determination of esketamine and noresketamine plasma concentrations were collected into the appropriate collection tube (e.g., Vacutainer®) at timepoints 0.00, 0.12, 0.20, 0.37, 0.53, 0.67, 0.83, 1.00, 1.25, 1.50, 2.00, 3.00, 4.00, 6.00, 9.00, 12.00, 18.00, and 24.00 h. The total amount of blood to be drawn for clinical laboratory tests and PK evaluations is approximately 327 mL.
Plasma samples were analyzed for esketamine and noresketamine concentrations using the validated, specific and sensitive liquid chromatography coupled to tandem mass spectrometry (LC-MS/MS) achiral method of Example 8.
Serial PK blood samples (4 mL each) were collected for a 24-hour period from each subject (Periods 1, 2, and 3). […] Statistical Methods 1.6.4.1. Sample Size
The following key parameters of esketamine and noresketamine in plasma were calculated using noncompartmental methods and actual sampling times: Cmax, tmax, AUClast, AUC∞, t1/2,λ, and λz.

[7] = Pharmacokinetics assembled from 14 Phase 1 studies (Example 10); conditions: for Terminal t1/2 / AUClast / Cmax / tmax: young adult subjects; for Terminal t1/2: range across studies; for AUClast / Cmax: range of mean values; for tmax: range of median values
Protocol: The data herein was assembled from 14 Phase 1 studies; each Phase 1 study was performed similarly to the study outlined in Example 9 in which the PK of esketamine was assessed.

adult subjects with TRD [8] = conditions: US patients
From the text: Adverse events were reported by the subject (or, when appropriate, by a caregiver, surrogate, or the subject's legally acceptable representative) for the duration of the study. Adverse events were followed by the investigator. TEAEs of special interest were examined separately.
The verbatim terms used in the eCRF by investigators to identify adverse events were coded using the MedDRA. All reported adverse events with onset during the double-blind induction phase (i.e., TEAEs, and adverse events that have worsened since baseline) were included in the analysis. For each adverse event, the percentage of subjects who experience at least 1 occurrence of the given event was summarized by treatment group. Adverse events occurring during the follow-up phase were summarized separately.
TEAEs of special interest were examined separately. AEs of special interest were listed in the SAP. Subjects who died, who discontinued treatment due to an adverse event, or who experienced a severe or a serious adverse event were summarized separately.
An adverse event is any untoward medical occurrence in a clinical study subject administered a medicinal (investigational or non-investigational) product. […]

adult subjects with TRD [9] = conditions: double-blind phase
Protocol: The CADSS is an instrument for the measurement of present-state dissociative symptoms, and was administered to assess treatment-emergent dissociative symptoms. The CADSS consists of 23 subjective items, divided into 3 components: Depersonalization (Items 3 to 7, 20, and 23), derealization (Items 1, 2, 8 to 13, 16 to 19, and 21) and amnesia (Items 14, 15, and 22). Participant's responses were coded on a 5-point scale (0=not at all through to 4=extremely).
(§2) The Clinician Administered Dissociative States Scale (CADSS) was measured prior to the start of each dose, at 40 minutes, and 1.5 hours postdose.

[10] = system: elderly subjects with TRD; conditions: double-blind phase
Protocol: as §2

[11] = system: subjects with MDD at imminent risk for suicide; conditions: 84 mg
Protocol: The CADSS was measured prior to the start of each dose, at 40 minutes, 2 hours, and 4 hours postdose.

CN[C@]1(c2ccccc2Cl)CCCCC1=O [esketamine, (S)-2-(2-chlorophenyl)-2-(methylamino)cyclohexanone]
AUC-based safety margin compared with the maximum 84 mg clinical dose [1]: ~86 fold
Cmax-based safety margin compared with the maximum 84 mg clinical dose [1]: approximately 60 fold
proportion of responders (≥50% improvement in MADRS) ([2]; 84 mg, Period 2 endpoint): 50.0%
MADRS total score, LS mean difference vs placebo (all dose groups) ([2]; Period 1, baseline to day 8): −5.0 to −10.5
Remitters, % ([2]; Period 1, 84 mg): (25.0) %
Responders, % ([2]; Period 1, 84 mg): (41.7) %
MADRS total score, LS mean difference vs placebo (all dose groups) ([2]; Period 2, day 8 to day 15): −3.1 to −6.9
MADRS total score, LS mean change ([2]; Period 2, change at study period endpoint, 56 mg): −8.9
Remitters, % ([2]; Period 2, 28 mg): (12.5) %
Responders, % ([2]; Period 2, 28 mg): (12.5) %
Remitters, % ([2]; Period 2, 84 mg): (20.0) %
maximum diastolic blood pressure value ([3]; 10 or 40 minutes post-dose): 115 mmHg
maximum systolic blood pressure value ([3]; 10 or 40 minutes post-dose): 199 mmHg
maximum mean change in diastolic blood pressure ([3]; dosing days): 10.3 mmHg
maximum mean change in heart rate ([3]; dosing days): 9.4 bpm
maximum mean change in systolic blood pressure ([3]; dosing days): 19.0 mmHg
elevated blood pressure returned to the normal range by ([3]; in vivo): ≤ 2 hours post-dose
symptoms suggestive of psychosis (BPRS-positive assessment) [4]: No participant manifested symptoms suggestive of psychosis
QC sample freeze/thaw stability ([5]; freeze (−20° C.)/thaw (room temperature)): 3 freeze (−20° C.)/thaw (room temperature) cycles
QC sample long-term storage stability ([5]; human plasma QC sample at −20° C.): 707 days at −20 °C
QC sample bench-top stability ([5]; human plasma QC sample, room temperature): 18 hours at room temperature
variability of AUC (AUClast and AUC∞) [6]: 25.0% to 30.4
variability of Cmax (percent coefficient of variation) [6]: 35.7% to 36.7
mean terminal t1/2 ([7]; nasal administration): 7 to 12 h
Terminal t1/2 ([7]; single dose nasal spray 28 mg): 7.25 to 16.5 h
AUClast ([7]; single dose nasal spray 28 mg): 128 to 183 ng·h/mL
Cmax ([7]; single dose nasal spray 28 mg): 49.7 to 70.5 ng/mL
tmax ([7]; single dose nasal spray 28 mg): 0.33 to 0.67 h
Terminal t1/2 ([7]; single dose nasal spray 56 mg): 6.8 to 9.83 h
AUClast ([7]; single dose nasal spray 56 mg): 216 to 317 ng·h/mL
Cmax ([7]; single dose nasal spray 56 mg): 71.8 to 117 ng/mL
tmax ([7]; single dose nasal spray 56 mg): 0.50 to 0.77 h
Terminal t1/2 ([7]; single dose nasal spray 84 mg): 6.6 to 12.0 h
AUClast ([7]; single dose nasal spray 84 mg): 310 to 489 ng·h/mL
Cmax ([7]; single dose nasal spray 84 mg): 95.0 to 164 ng/mL
tmax ([7]; single dose nasal spray 84 mg): 0.53 to 0.83 h
patients who withdrew from nasal spray drug (adult subjects with TRD [8]): 3 n
dissociative and perceptual change symptoms (CADSS) resolved by (adult subjects with TRD [9]): ≤ 1.5 hours postdose
dissociative and perceptual change symptoms (CADSS) resolved by [10]: ≤ 1.5 hours postdose
dissociative and perceptual change symptoms (CADSS) resolved by [11]: ≤ 2 hours post dose
